In patent US12391679B2, “Benzamide-substituted bicyclic imidazo- and pyrazolo-fused -pyridine, -pyrimide, and -pyridazine compounds for treatment of inflammatory diseases” (ONCO3R Therapeutics BV, priority 2019, dated 2025) one finds IC50 data, which are given here for 24 compounds.

Each structure is given as a SMILES string.

Common to all, as to type: biochemical
The target in assay [1] is T1, SIK2 (Homo sapiens, UniProt Q9H0K1).
T1 construct: purchased ThermoFisher Scientific PV4792
The assay can be described thus: ADP-Glo kinase assay, SIK2. Summed up:
(§1)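 Kinase reactions ran 120 min at room temperature after ATP addition to enzyme-substrate mix. Remaining ATP was depleted (40 min) and ADP converted to ATP for luciferase detection (30 min), signal rising with activity. Final 1% DMSO and 10 μM staurosporine served as negative and positive controls.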

Assay [2] has as its target T2, SIK3 (Homo sapiens, UniProt Q9Y2K2).
T2 construct: purchased SignalChem S12-11G-100
As to the kind of experiment: ADP-Glo kinase assay, SIK3. The gist of the method:
as §1

The target of assay [3] is T3, SIK1 (Homo sapiens, UniProt P57059).
T3 construct: purchased Carna Biosciences 02-131
The assay can be described thus: ADP-Glo kinase assay, SIK1. The gist of the method:
as §1
In general terms: ADP-Glo first removes unused ATP, then detects ADP through luciferase.

The IC50 is the concentration that inhibits the measured activity by half. A lower IC50 goes with higher potency.

T2 sequence (Q9Y2K2 59-365 limits assumed): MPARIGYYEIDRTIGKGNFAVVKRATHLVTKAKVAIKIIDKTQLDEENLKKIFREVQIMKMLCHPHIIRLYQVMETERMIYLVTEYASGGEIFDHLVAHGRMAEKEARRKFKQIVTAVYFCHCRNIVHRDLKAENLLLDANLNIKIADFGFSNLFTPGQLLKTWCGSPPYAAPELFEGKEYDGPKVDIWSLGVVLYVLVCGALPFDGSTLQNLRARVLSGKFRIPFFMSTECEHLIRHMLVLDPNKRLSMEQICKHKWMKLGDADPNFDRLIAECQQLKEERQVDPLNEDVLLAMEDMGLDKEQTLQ
T3 sequence (P57059 whole entry): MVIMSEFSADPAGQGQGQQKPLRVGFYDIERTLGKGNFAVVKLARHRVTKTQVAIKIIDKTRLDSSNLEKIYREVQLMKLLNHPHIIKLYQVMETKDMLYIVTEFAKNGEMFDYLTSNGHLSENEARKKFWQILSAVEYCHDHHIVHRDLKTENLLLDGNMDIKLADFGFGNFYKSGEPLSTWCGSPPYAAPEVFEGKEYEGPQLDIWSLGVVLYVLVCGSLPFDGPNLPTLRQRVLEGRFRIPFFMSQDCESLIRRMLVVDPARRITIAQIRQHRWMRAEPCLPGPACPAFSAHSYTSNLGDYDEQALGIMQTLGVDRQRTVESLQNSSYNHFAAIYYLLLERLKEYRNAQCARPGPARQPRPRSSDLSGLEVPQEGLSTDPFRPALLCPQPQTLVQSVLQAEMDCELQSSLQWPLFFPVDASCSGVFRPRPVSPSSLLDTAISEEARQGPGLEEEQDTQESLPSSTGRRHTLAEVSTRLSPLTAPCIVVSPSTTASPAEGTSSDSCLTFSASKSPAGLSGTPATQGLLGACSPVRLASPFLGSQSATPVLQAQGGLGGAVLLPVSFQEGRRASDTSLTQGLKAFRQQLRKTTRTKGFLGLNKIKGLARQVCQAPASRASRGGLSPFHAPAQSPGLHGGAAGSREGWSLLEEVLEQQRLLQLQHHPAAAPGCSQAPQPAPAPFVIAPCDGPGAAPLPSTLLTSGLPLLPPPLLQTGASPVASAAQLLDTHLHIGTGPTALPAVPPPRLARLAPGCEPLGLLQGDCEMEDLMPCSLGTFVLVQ
T1 sequence (Q9H0K1 whole entry): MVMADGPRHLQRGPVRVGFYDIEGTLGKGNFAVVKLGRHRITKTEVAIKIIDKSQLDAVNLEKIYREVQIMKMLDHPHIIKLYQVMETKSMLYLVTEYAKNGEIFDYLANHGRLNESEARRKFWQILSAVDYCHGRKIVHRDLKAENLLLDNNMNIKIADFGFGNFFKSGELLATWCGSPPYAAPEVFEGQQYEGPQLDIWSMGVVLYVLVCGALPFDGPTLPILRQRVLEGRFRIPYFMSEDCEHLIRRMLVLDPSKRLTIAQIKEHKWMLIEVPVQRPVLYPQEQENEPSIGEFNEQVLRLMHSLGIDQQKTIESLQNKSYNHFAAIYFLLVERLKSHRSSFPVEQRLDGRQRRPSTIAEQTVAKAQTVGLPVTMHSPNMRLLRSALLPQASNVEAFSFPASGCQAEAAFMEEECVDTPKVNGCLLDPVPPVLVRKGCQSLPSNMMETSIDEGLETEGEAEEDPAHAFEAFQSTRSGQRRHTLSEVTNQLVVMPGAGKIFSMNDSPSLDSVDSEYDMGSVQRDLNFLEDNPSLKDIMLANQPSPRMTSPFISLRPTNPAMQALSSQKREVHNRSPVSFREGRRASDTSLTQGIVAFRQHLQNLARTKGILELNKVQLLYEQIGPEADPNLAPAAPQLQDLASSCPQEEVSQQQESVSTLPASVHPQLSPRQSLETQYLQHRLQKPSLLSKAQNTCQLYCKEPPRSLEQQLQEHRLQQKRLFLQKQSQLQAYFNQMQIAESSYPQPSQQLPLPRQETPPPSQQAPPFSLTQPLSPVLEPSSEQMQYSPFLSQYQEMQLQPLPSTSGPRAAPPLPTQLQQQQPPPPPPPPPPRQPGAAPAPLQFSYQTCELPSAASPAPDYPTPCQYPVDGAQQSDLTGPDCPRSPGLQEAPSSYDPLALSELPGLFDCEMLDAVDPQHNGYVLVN

In the case of `COc1cc(-c2cnc3cc(C(C)NC(C)C)ccn23)cc(OC(F)F)c1C(=O)NC1CC1` (stereo not drawn) [Cpd 149, N-cyclopropyl-2-(difluoromethoxy)-4-[7-[1-(isopropylamino)ethyl]imidazo[1,2-a]pyridin-3-yl]-6-methoxy-benzamide], the IC50 in assay [1] is > 500 nM; in assay [2], 10 to 100 nM; in assay [3], > 500 nM.

Regarding `COc1cc(-c2cnc3cc(C4(CNC(C)C)CC4)ccn23)cc(OC(F)F)c1C(=O)NC1CC1` [Cpd 151, N-cyclopropyl-2-(difluoromethoxy)-4-[7-[1-[(isopropylamino)methyl]cyclopropyl]imidazo[1,2-a]pyridin-3-yl]-6-methoxy-benzamide], the IC50 was > 500 nM in assay [1], 100 to 500 nM in assay [2] and > 500 nM in assay [3].

As to `COc1cc(-c2cnc3cc(C(C)N4CC5(COC5)C4)ccn23)cc(OC(F)F)c1C(=O)NC1CC1` (stereo not drawn) [Cpd 152, N-cyclopropyl-2-(difluoromethoxy)-6-methoxy-4-[7-[1-(2-oxa-6-azaspiro[3.3]heptan-6-yl)ethyl]imidazo[1,2-a]pyridin-3-yl]benzamide], the IC50 in assay [1] was > 500 nM; in assay [2], 10 to 100 nM; in assay [3], > 500 nM.

For `COc1cc(-c2cnc3cc(C(C)N4CCCC4)ccn23)cc(OC(F)F)c1C(=O)NC1CC1` (stereo not drawn) [Cpd 153, N-cyclopropyl-2-(difluoromethoxy)-6-methoxy-4-[7-(1-pyrrolidin-1-ylethyl)imidazo[1,2-a]pyridin-3-yl]benzamide], the IC50 in assay [1] was > 500 nM; in assay [2], 10 to 100 nM; in assay [3], > 500 nM.

As to `COc1cc(-c2cnc3cc(C(C)N(C)CCO)ccn23)cc(OC(F)F)c1C(=O)NC1CC1` (stereo not drawn) [Cpd 154, N-cyclopropyl-2-(difluoromethoxy)-4-[7-[1-[2-hydroxyethyl(methyl)amino]ethyl]imidazo[1,2-a]pyridin-3-yl]-6-methoxy-benzamide], the values for the IC50 in assay [1], in assay [2] and in assay [3] were > 500 nM, 10 to 100 nM and > 500 nM, respectively.

Consider `COc1cc(-c2cnc3cc(C(C)N4CC(O)C4)ccn23)cc(OC(F)F)c1C(=O)NC1CC1` (stereo not drawn) [Cpd 155, N-cyclopropyl-2-(difluoromethoxy)-4-[7-[1-(3-hydroxyazetidin-1-yl)ethyl]imidazo[1,2-a]pyridin-3-yl]-6-methoxy-benzamide], for which the results for the IC50 in assay [1], in assay [2] and in assay [3] were > 500 nM, 10 to 100 nM and > 500 nM, respectively.

As to `COc1cc(-c2cnc3cc(C(C)N4CC(F)(F)C4)ccn23)cc(OC(F)F)c1C(=O)NC1CC1` (stereo not drawn) [Cpd 156, N-cyclopropyl-4-[7-[1-(3,3-difluoroazetidin-1-yl)ethyl]imidazo[1,2-a]pyridin-3-yl]-2-(difluoromethoxy)-6-methoxy-benzamide], the IC50 in assay [1] is > 500 nM; in assay [2], 10 to 100 nM; in assay [3] it was > 500 nM.

As to `COc1cc(-c2cnc3cc(C(C)N4CCO[C@H](CO)C4)ccn23)cc(OC(F)F)c1C(=O)NC1CC1` (stereo partly drawn) [Cpd 157, N-cyclopropyl-2-(difluoromethoxy)-4-[7-[1-[(2S)-2-(hydroxymethyl)morpholin-4-yl]ethyl]imidazo[1,2-a]pyridin-3-yl]-6-methoxy-benzamide], the IC50 in assay [1] is > 500 nM; in assay [2], 10 to 100 nM; in assay [3] it was > 500 nM.

Consider `COc1cc(-c2cnc3cc(C4CN(C(=O)OC(C)(C)C)C4)c(F)cn23)cc(OC(F)F)c1C(=O)NC1CC1` [Cpd 158, tert-butyl 3-[3-[4-(cyclopropylcarbamoyl)-3-(difluoromethoxy)-5-methoxy-phenyl]-6-fluoro-imidazo[1,2-a]pyridin-7-yl]azetidine-1-carboxylate], for which the IC50 was 100 to 500 nM in assay [1], 10 to 100 nM in assay [2] and 100 to 500 nM in assay [3].

In the case of `COc1cc(-c2cnc3cc(C4CCC4)ccn23)cc(OC(F)F)c1C(=O)NC1CC1` [Cpd 159, 4-(7-cyclobutylimidazo[1,2-a]pyridin-3-yl)-N-cyclopropyl-2-(difluoromethoxy)-6-methoxy-benzamide], the IC50 in assay [1] fell in the range of 10 to 100 nM; in assay [2] it was 0.01 to 10 nM; in assay [3], 10 to 100 nM.

`COc1cc(-c2cnc3cc(C(C)(C)CN4CCCC4)ccn23)cc(OC(F)F)c1C(=O)NC1CC1` [Cpd 161, N-cyclopropyl-2-(difluoromethoxy)-4-[7-(1,1-dimethyl-2-pyrrolidin-1-yl-ethyl)imidazo[1,2-a]pyridin-3-yl]-6-methoxy-benzamide]: the figures for the 50% inhibitory concentration (IC50) in assay [1], in assay [2] and in assay [3] were > 500 nM, 10 to 100 nM and > 500 nM, respectively.

Consider `COc1cc(-c2cnc3cc(C4CCCN4C(=O)OC(C)(C)C)ccn23)cc(OC(F)F)c1C(=O)NC1CC1` (stereo not drawn) [Cpd 180, tert-butyl 2-[3-[4-(cyclopropylcarbamoyl)-3-(difluoromethoxy)-5-methoxy-phenyl]imidazo[1,2-a]pyridin-7-yl]pyrrolidine-1-carboxylate], for which the IC50 in assay [1] was 100 to 500 nM; in assay [2] it was 10 to 100 nM; in assay [3], 100 to 500 nM.

In the case of `COC(=O)C(C)(C#N)c1ccn2c(-c3cc(OC)c(C(=O)NC4CC4)c(OC(F)F)c3)cnc2c1` (stereo not drawn) [Cpd 184, methyl 2-cyano-2-[3-[4-(cyclopropylcarbamoyl)-3-(difluoromethoxy)-5-methoxy-phenyl]imidazo[1,2-a]pyridin-7-yl]propanoate], the IC50 in assay [1], in assay [2] and in assay [3] was > 500 nM in each case.

Regarding `COc1cc(-c2cnc3cc(C4COCCN4C(=O)OC(C)(C)C)ccn23)cc(OC(F)F)c1C(=O)NC1CC1` (stereo not drawn) [Cpd 186, tert-butyl 3-[3-[4-(cyclopropylcarbamoyl)-3-(difluoromethoxy)-5-methoxy-phenyl]imidazo[1,2-a]pyridin-7-yl]morpholine-4-carboxylate], the IC50 in assay [1], in assay [2] and in assay [3] was > 500 nM each time.

As to `COc1cc(-c2cnc3cc(C4COCCN4)ccn23)cc(OC(F)F)c1C(=O)NC1CC1` (stereo not drawn) [Cpd 187, N-cyclopropyl-2-(difluoromethoxy)-6-methoxy-4-(7-morpholin-3-ylimidazo[1,2-a]pyridin-3-yl)benzamide], the IC50 in assay [1] is > 500 nM; in assay [2] it was 10 to 100 nM; in assay [3] it was > 500 nM.

As to `COc1cc(-c2cnc3cc(C(C)(O)Cn4cncn4)ccn23)cc(OC(F)F)c1C(=O)NC1CC1` (stereo not drawn) [Cpd 194, N-cyclopropyl-2-(difluoromethoxy)-4-[7-[1-hydroxy-1-methyl-2-(1,2,4-triazol-1-yl)ethyl]imidazo[1,2-a]pyridin-3-yl]-6-methoxy-benzamide], the values for the IC50 in assay [1], in assay [2] and in assay [3] were > 500 nM, 100 to 500 nM and > 500 nM, respectively.

With `COCCN1CCCC1c1ccn2c(-c3cc(OC)c(C(=O)NC4CC4)c(OC(F)F)c3)cnc2c1` (stereo not drawn) [Cpd 196, N-cyclopropyl-2-(difluoromethoxy)-6-methoxy-4-[7-[1-(2-methoxyethyl)pyrrolidin-2-yl]imidazo[1,2-a]pyridin-3-yl]benzamide], the results for the IC50 in assay [1], in assay [2] and in assay [3] were 10 to 100 nM, 10 to 100 nM and 100 to 500 nM, respectively.

Turning to `COc1cc(-c2cnc3cc(C4CCCN4C(C)C)ccn23)cc(OC(F)F)c1C(=O)NC1CC1` (stereo not drawn) [Cpd 197, N-cyclopropyl-2-(difluoromethoxy)-4-[7-(1-isopropylpyrrolidin-2-yl)imidazo[1,2-a]pyridin-3-yl]-6-methoxy-benzamide], the IC50 in assay [1] was 10 to 100 nM; in assay [2] it was 10 to 100 nM; in assay [3], 100 to 500 nM.

For the compound `COc1cc(-c2cnc3cc(C4CCCN4C(C)=O)ccn23)cc(OC(F)F)c1C(=O)NC1CC1` (stereo not drawn) [Cpd 198, 4-[7-(1-acetylpyrrolidin-2-yl)imidazo[1,2-a]pyridin-3-yl]-N-cyclopropyl-2-(difluoromethoxy)-6-methoxy-benzamide], the IC50 in assay [1] is > 500 nM; in assay [2] it was 10 to 100 nM; in assay [3] it was > 500 nM.

As for `COc1cc(-c2cnc3cc(C(O)C4CCC4)ccn23)cc(OC(F)F)c1C(=O)NC1CC1` (stereo not drawn) [Cpd 199, 4-[7-[cyclobutyl(hydroxy)methyl]imidazo[1,2-a]pyridin-3-yl]-N-cyclopropyl-2-(difluoromethoxy)-6-methoxy-benzamide], the IC50 in assay [1] is > 500 nM; in assay [2], 10 to 100 nM; in assay [3] it was > 500 nM.

`CCC(O)C(C)(C)c1ccn2c(-c3cc(OC)c(C(=O)NC4CC4)c(OC(F)F)c3)cnc2c1` (stereo not drawn) [Cpd 201, N-cyclopropyl-2-(difluoromethoxy)-4-[7-(2-hydroxy-1,1-dimethyl-butyl)imidazo[1,2-a]pyridin-3-yl]-6-methoxy-benzamide]: the concentration for half-maximal inhibition (IC50) in assay [1] was > 500 nM; in assay [2], 10 to 100 nM; in assay [3], > 500 nM.

For the compound `COc1cc(-c2cnc3cc(C(C)(C)C(O)C(C)C)ccn23)cc(OC(F)F)c1C(=O)NC1CC1` (stereo not drawn) [Cpd 202, N-cyclopropyl-2-(difluoromethoxy)-4-[7-(2-hydroxy-1,1,3-trimethyl-butyl)imidazo[1,2-a]pyridin-3-yl]-6-methoxy-benzamide], the IC50 is > 500 nM in assay [1], 10 to 100 nM in assay [2] and > 500 nM in assay [3].

Regarding `COc1cc(-c2cnc3cc(C4CCN4)ccn23)cc(OC(F)F)c1C(=O)NC1CC1` (stereo not drawn) [Cpd 203, 4-[7-(azetidin-2-yl)imidazo[1,2-a]pyridin-3-yl]-N-cyclopropyl-2-(difluoromethoxy)-6-methoxy-benzamide], the IC50 is 100 to 500 nM in assay [1], 10 to 100 nM in assay [2] and > 500 nM in assay [3].

As to `COc1cc(-c2cnc3cc(C4CCN4C)ccn23)cc(OC(F)F)c1C(=O)NC1CC1` (stereo not drawn) [Cpd 204, N-cyclopropyl-2-(difluoromethoxy)-6-methoxy-4-[7-(1-methylazetidin-2-yl)imidazo[1,2-a]pyridin-3-yl]benzamide], the half-inhibitory concentration (IC50) in assay [1] is > 500 nM; in assay [2], 10 to 100 nM; in assay [3], > 500 nM.
